Values joined by “and” are separate entries in the source; they are usually repeats but may differ in a detail not shown here. Identical values can stand only once. Starred links: 1 amine or outer side, 2 acyl side, 3 side chain; linkers in the order of their positions; H or OH if unused. Non-standard residues stand in square brackets, D forms with d. Residues, ends and D or L forms follow the SMILES beside them. Groups on a side chain read outwards from the residue. *: point of attachment. γGlu = O=C(O)[C@H](CCC(=O)[*:2])N[*:1]; αMeF = C[C@](N)(Cc1ccccc1)C(=O)O; αMeK = C[C@](N)(CCCCN)C(=O)O; Lauroyl = CCCCCCCCCCCC(=O)*; αMeS = C[C@](N)(CO)C(=O)O; AEEA = NCCOCCOCC(=O)O; Aib = CC(C)(N)C(=O)O
Assays:
[1] = Rat intraduodenal study, MEDI7219 with new gallate derivatives and other enhancers (Example 8); type: in vivo
Experimental: The next rat ID administration study was performed to assess the oral bioavailability and pharmacokinetics of MEDI7219 (SEQ ID NO:2) formulations containing new gallate derivatives, sodium 2-(3,4,5-trihydroxybenzoyloxy) acetate and butanoate, sodium cholate with propyl gallate, sodium caprate with propyl gallate, sodium caprate with propyl gallate and citric acid, and sucrose monododecanoate.

GLP-1 receptor = GLP-1 receptor (Homo sapiens, UniProt P43220); assay: cAMP assay, primary assay as described in WO 2016/198544; type: cell-based; conditions: in vitro potency at the GLP-1 receptor
From the text: The biological activity of a GLP-1 peptide analog can be evaluated, for example, by assessing the ability of the peptide to activate a receptor (e.g., a GLP-1 receptor). Peptide activation of such receptors results in downstream accumulation of cAMP second messenger which can be measured in a functional activity assay.

[2] = Rat intraduodenal study, MEDI7219 with new permeation enhancer formulations (Example 7); type: in vivo; conditions: for AUC(0-t) / Cmax / Tmax / half-life: plasma; for half-life: read-out: T ½ (converted)
Experimental: The following rat ID study compared oral bioavailability of the MEDI7219 (SEQ ID NO:2) peptide formulated with new permeation enhancer formulations after intraduodenal administration in rats. All test articles were prepared as solutions in 50 mM Tris, 150 mM mannitol, 0.02% polysorbate 80, pH 8.5. Table 8 gives the formulation and pharmacokinetic analysis details.

[3] = Third rat ID infusion study, stabilized peptides vs semaglutide (Example 6); conditions: in vivo
Experimental: The third rat ID infusion study was performed to compare bioavailability of stabilized peptides MEDI7219 (SEQ ID NO:2) and SEQ ID NO:6 with that of semaglutide, H-His-Aib-[…]AEEAc-AEEAc-γ-Glu-17-carboxyheptadecanoyl)-[…]OH (SEQ ID NO:11), (Novo Nordisk), an un-stabilized GLP-1 peptide analog, that only has Aib in its sequence for protection from circulating DPP-IV peptidases, (Table 7 and FIG. 2B).

[4] = Canine study, compositions around 6.5:1 Na CDC:PG ratio in enterically coated tablets (Example 23, Table 30); type: in vivo; conditions: dogs, oral enterically coated tablet
From the text: The following materials and methods were used for quantitative measurements of GLP-1 peptide analogs in plasma (e.g., rat or dog plasma) in the Examples below. These methods used a SCIEX 6600 TripleTOF mass spectrometer coupled with a Shimadzu ultra-high performance liquid chromatography (UHPLC). The specificity of the method was ensured by the retention time, the selected mass for Single-Reaction-Monitoring (SRM) mode, and the selected fragment mass in MS/MS (MS^2) mode.
The plasma extraction procedure used the following steps: • Samples, standards, and quality controls were incubated until they reached room temperature. They were then incubated at 60° C. for 2 minutes and cooled down to room temperature, vortexed, and spun down. • 70 μL of samples, standards, or quality controls were transferred into a 1 mL 96-well plate. • In each well, 420 uL of Precipitation Solution was added. The plate was sealed and shook for 10 minutes on a plate shaker at 600 rpm. • The plate was centrifuged at 18G, 2500 RFC, 20° C. for 10 minutes. • The plate was carefully removed, and the upper clear supernatant was extracted with a 200 uL multichannel pipette into a new 96-well protein lobind plate. The supernatant was extracted twice for each well, and the supernatants were combined. • The Plate was placed in TurboVap and the extracted supernatant was dried completely with heated (65° C.) Nitrogen gas at 60 Fahrenheit (Fh). • After the plate was completely dry, the plates were covered and incubated at room temperature for at least 30 minutes until the plate returned back to ambient temperature. • 150 μL of Reconstitution solution was added to each well. The plate was covered with a pierceable place seal and shaken at 600 rpm for 10 minutes. • The samples were submitted to the LC-MS/MS on the same day of Preparation
Quantification of the data obtained using the high resolution SCIEX 6600 instrument was then performed as follows: • For the quantification, extracted ion chromatograms (XIC) using 0.2 Da m/z extraction window centered on the accurate mass of each fragment ion were generated. Accurate mass was calculated from the structure of the compound. […] Concentrations of the target analyte in unknown samples were obtained by regression analysis using linear fits of peak areas vs. analyte concentration, weighted 1/(concentration). • The quality of the assay was controlled by the quality control samples. • Either Experiment 1 or Experiment 2 could be used for the quantification of the GLP-1 peptide analogs in high resolution mode.

[5] = Canine study, MEDI7219 enterically coated tablet, single and repeated dosing (Example 14); type: in vivo
Experimental: Tablet optimization was further established in the following canine study. The goals of this study were to evaluate the performance of the group 8 tablet formulation (Example 13, Table 20) as an enterically-coated (EC) tablet and to evaluate repeated dosing of this formulation. A Eudragit formula dissolving at pH 5.5 or above was applied to the tablets as enteric coating. Enterically-coated tablets were administered on day 0 followed by a 1 week wash-out. Following wash-out, animals received additional doses on days 7, 8, 9, 10 and 11.

[6] = iv, 0.01 mg/kg, IV, 0.01 mg/kg, Group 1 control, 0.01 mg/mL peptide
[7] = other: intraduodenal (ID), 1 mg/kg, ID, 1 mg/kg, Group 2: 0.5 mg/mL peptide, 25 mg/mL Na CDC, 12.5 mg/mL Ethyl Gallate
[8] = other: intraduodenal (ID), 1 mg/kg, ID, 1 mg/kg, Group 3: 0.5 mg/mL peptide, 12.5 mg/mL Na CDC, 25 mg/mL Ethyl Gallate
[9] = other: intraduodenal (ID), 1 mg/kg, ID, 1 mg/kg, Group 4: 0.5 mg/mL peptide, 25 mg/mL Na CDC, 12.5 mg/mL Octyl Gallate
[10] = other: intraduodenal (ID), 1 mg/kg, ID, 1 mg/kg, Group 5: 0.5 mg/mL peptide, 25 mg/mL Chenodeoxycholic acid, 12.5 mg/mL PG
[11] = other: intraduodenal (ID), 1 mg/kg, ID, 1 mg/kg, Group 8: 0.5 mg/mL peptide, 25 mg/mL Na CDC, 12.5 mg/mL PG
[12] = 4:1 ratio, 120 mg Na CDC and 30 mg PG, 3 mg MEDI7219
[13] = 14:1 ratio, 140 mg Na CDC and 10 mg PG, 3 mg MEDI7219
[14] = 29:1 ratio, 145 mg Na CDC and 5 mg PG, 3 mg MEDI7219

Sequence of GLP-1 receptor (P43220 24-463): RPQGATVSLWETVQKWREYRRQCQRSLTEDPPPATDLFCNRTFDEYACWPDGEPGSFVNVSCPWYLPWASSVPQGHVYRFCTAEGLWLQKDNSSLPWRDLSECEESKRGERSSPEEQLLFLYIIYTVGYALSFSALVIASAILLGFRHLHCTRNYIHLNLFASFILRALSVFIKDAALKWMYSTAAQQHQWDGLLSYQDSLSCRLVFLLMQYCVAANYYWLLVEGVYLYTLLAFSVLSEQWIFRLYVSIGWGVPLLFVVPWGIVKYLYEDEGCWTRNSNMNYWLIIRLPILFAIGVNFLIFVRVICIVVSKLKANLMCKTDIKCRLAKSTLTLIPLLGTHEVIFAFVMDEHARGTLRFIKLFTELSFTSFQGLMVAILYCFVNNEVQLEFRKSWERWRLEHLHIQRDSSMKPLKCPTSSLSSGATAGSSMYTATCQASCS

Bioavailability F (%) ([1]; ID, 1 mg/kg, Group 6: 12.5 mg/mL Sodium Cholate, 25 mg/mL PG (25 + 50 mg/kg)): no bioavailability
Bioavailability F (%) ([1]; ID, 1 mg/kg, Group 7: 12.5 mg/mL Sodium Caprate, 25 mg/mL PG (25 + 50 mg/kg)): ~0.6%
Bioavailability F (%) ([1]; ID, 1 mg/kg, Group 8: 12.5 mg/mL Sodium Caprate, 25 mg/mL PG, 10 mg/mL Citric Acid): 0 (NA) %
exposure ([1]; ID, addition of citric acid to sodium caprate and propyl gallate): below level of quantification
Bioavailability F (%) ([1]; IV, 0.01 mg/kg, Group 1 control in 50 mM Tris, 150 mM Mannitol, 0.02% Polysorbate 80, pH 8.5): 100%
EC50 (GLP-1 receptor): ~3.9 pM
F ([2]; ID, 1 mg/kg, Group 2: 0.5 mg/mL peptide, 25 mg/mL Na CDC, 12.5 mg/mL Ethyl Gallate): 1.11%
F ([2]; ID, 1 mg/kg, Group 3: 0.5 mg/mL peptide, 12.5 mg/mL Na CDC, 25 mg/mL Ethyl Gallate): 2.14%
F ([2]; ID, 1 mg/kg, Group 4: 0.5 mg/mL peptide, 25 mg/mL Na CDC, 12.5 mg/mL Octyl Gallate): 1.12%
F ([2]; ID, 1 mg/kg, Group 5: 0.5 mg/mL peptide, 25 mg/mL Chenodeoxycholic acid, 12.5 mg/mL PG, 1 mg/kg): 1.96% and 1.92%
F ([2]; ID, 1 mg/kg, Group 6: 0.5 mg/mL peptide, 25 mg/mL Ursodeoxycholic acid, 12.5 mg/mL PG): 0%
F ([2]; ID, 1 mg/kg, Group 7: 0.5 mg/mL peptide, 25 mg/mL Na CDC, 12.5 mg/mL PG, 25 mg/mL N-Acetyl Cysteine): 0%
F ([2]; ID, 1 mg/kg, Group 8: 0.5 mg/mL peptide, 25 mg/mL Na CDC, 12.5 mg/mL PG): 1.45%
F ([2]; IV, 0.01 mg/kg, Group 1 control, 0.01 mg/mL peptide): 100%
AUC(0-t) [2, 6]: 1030 ng·h/mL
Cmax [2, 6]: 187 ng/mL
Tmax [2, 6]: 4.98 min
half-life [2, 6]: 534 min
AUC(0-t) [2, 7]: 1110 ng·h/mL
Cmax [2, 7]: 175 ng/mL
Tmax [2, 7]: 15 min
half-life [2, 7]: 618 min
AUC(0-t) [2, 8]: 1970 ng·h/mL
Cmax [2, 8]: 282 ng/mL
Tmax [2, 8]: 15 min
half-life [2, 8]: 478 min
AUC(0-t) [2, 9]: 1170 ng·h/mL
Cmax [2, 9]: 240 ng/mL
Tmax [2, 9]: 15 min
half-life [2, 9]: 478 min
AUC(0-t) [2, 10]: 1890 ng·h/mL
Cmax [2, 10]: 546 ng/mL
Tmax [2, 10]: 15 min
half-life [2, 10]: 516 min
AUC(0-t) [2, 11]: 1540 ng·h/mL
Cmax [2, 11]: 140 ng/mL
Tmax [2, 11]: 120 min
half-life [2, 11]: 530 min
half-life [3]: 624 min
AUC ([3]; iv, 0.01 mg/kg): 1590 ng·h/mL
Cmax ([3]; iv, 0.01 mg/kg): 264 ng/mL
F ([3]; iv, 0.01 mg/kg): 100%
half-life ([3]; iv, 0.01 mg/kg): 1020 min
F [4, 12]: ~5.7%
PK variability (CV) at C max [4, 12]: 52.8%
F [4, 13]: ~4.6%
PK variability at C max [4, 13]: 84.4%
F [4, 14]: ~3.8%
PK variability at C max [4, 14]: 135.3%
F ([4]; No PG formulation, 150 mg Na CDC): ~0.6%
F ([5]; Enterically Coated Oral tablet (Eudragit, pH 5.5): 1 mg peptide, 100 mg Na CDC, 200 mg PG): 4.6%
F ([5]; Intravenous, 0.05 mg/kg, 0.5 mg/mL in 50 mM Tris, 150 mM mannitol, 0.02% Polysorbate 80, pH8.0): 100%
Structure (SMILES): CCCCCCCCCCCC(=O)N[C@@H](CCC(=O)NCCOCCOCC(=O)NCCOCCOCC(=O)NCCCC[C@H](NC(=O)[C@H](C)NC(=O)[C@@H](NC(=O)[C@](C)(Cc1ccccc1)NC(=O)[C@H](CCC(=O)O)NC(=O)[C@](C)(CCCCN)NC(=O)[C@H](C)NC(=O)[C@H](C)NC(=O)[C@H](CCC(=O)O)NC(=O)CNC(=O)[C@H](CCC(=O)O)NC(=O)[C@H](CC(C)C)NC(=O)[C@H](CCCCNC(=O)COCCOCCNC(=O)COCCOCCNC(=O)CC[C@H](NC(=O)CCCCCCCCCCC)C(=O)O)NC(=O)[C@H](CO)NC(=O)[C@](C)(CO)NC(=O)[C@@H](NC(=O)[C@H](CC(=O)O)NC(=O)[C@H](CO)NC(=O)[C@@H](NC(=O)[C@](C)(Cc1ccccc1)NC(=O)[C@H](CO)NC(=O)CNC(=O)[C@H](CCC(=O)O)NC(=O)C(C)(C)NC(=O)[C@@H](N)Cc1c[nH]cn1)[C@@H](C)O)C(C)C)[C@@H](C)CC)C(=O)N[C@H](C(=O)N[C@H](C(=O)N[C@@H](CCC(=O)O)C(=O)NCC(=O)NCC(N)=O)C(C)C)C(C)C)C(=O)O [MEDI7219, Free-H-[AIB]-EGS-[αMePhe]-TSDV-[αMeSer]-SK[(PEG2)2-γE-Lauroyl]-LEGEAA-[αMeLys]-E-[αMePhe]-IAK[(PEG2)2-γE-Lauroyl]-VVEGG-amide] (H-H[Aib]EGS[αMeF]TSDV[αMeS]SK([AEEA-AEEA-γGlu-Lauroyl])LEGEAA[αMeK]E[αMeF]IAK([AEEA-AEEA-γGlu-Lauroyl])VVEGG-NH2)
F [3]: significantly higher absolute bioavailability via ID route than semaglutide
bioavailability and PK variability on repeated dosing ([5]; enterically coated tablet 1 mg peptide, 100 mg Na CDC, 200 mg PG, day 0, then days 7, 8, 9, 10 and 11): consistent bioavailability with reduced PK variability in subsequent dosing days
